From patent US20200325177A1, “METHODS OF MAKING STREPTOGRAMIN COMPOSITIONS AND THE USE THEREOF” (THE REGENTS OF THE UNIVERSITY OF CALIFORNIA, priority 2017, published 2020)
≈ marks a conversion by molar mass, not a printed value. Where two headings read alike, the source gives them in different places.

Key:
Format in all cases: cell-based
[1] = test system: K. pneumoniae multidrug-resistant; test: MIC, Gram-negative bacteria: K. pneumoniae multidrug-resistant; conditions: Klebsiella pneumoniae, read-out: Minimal Inhibitory Concentration (MIC) K. pneumoniae multidrug-resistant
[2] = test system: P. aeruginosa ATCC 27853; test: MIC, Gram-negative bacteria: P. aeruginosa ATCC 27853; conditions: Pseudomonas aeruginosa, ATCC27853, read-out: Minimal Inhibitory Concentration (MIC) P. aeruginosa ATCC 27853
[3] = test system: E. faecium ATCC 35667; test: MIC, Gram-positive bacteria: E. faecium ATCC 35667; conditions: Enterococcus faecium, ATCC35667, column 2, read-out: Minimal Inhibitory Concentration (MIC) E. faecium ATCC 35667
[4] = test system: S. pneumoniae; test: MIC, Gram-positive bacteria: S. pneumoniae; conditions: Streptococcus pneumoniae, column 10, read-out: Minimal Inhibitory Concentration (MIC) S. pneumoniae
[5] = test system: S. aureus; test: MIC, Gram-positive bacteria: S. aureus (strains not named); conditions: Staphylococcus aureus, read-out: Minimal Inhibitory Concentration (MIC) S. aureus
[6] = test system: E. faecalis; test: MIC, Gram-positive bacteria: E. faecalis; conditions: Enterococcus faecalis, column 1, read-out: Minimal Inhibitory Concentration (MIC) E. faecalis
[7] = test system: H. influenzae ATCC 49247; test: MIC, Gram-negative bacteria: H. influenzae ATCC 49247; conditions: Haemophilus influenzae, ATCC49247, read-out: Minimal Inhibitory Concentration (MIC) H. influenzae ATCC 49247
[8] = test system: E. faecium VRE; vanA; test: MIC, Gram-positive bacteria: E. faecium VRE; vanA; conditions: Enterococcus faecium, column 3, read-out: Minimal Inhibitory Concentration (MIC) E. faecium VRE
[9] = test system: P. aeruginosa MDR clinical isolate; test: MIC, Gram-negative bacteria: P. aeruginosa MDR clinical isolate; conditions: Pseudomonas aeruginosa, read-out: Minimal Inhibitory Concentration (MIC) P. aeruginosa MDR clinical isolate
[10] = test system: Gram-Negative Organisms; test: microbe, parasite or virus in culture
[11] = test system: S. aureus Vat A streptogramin; test: MIC, Gram-positive bacteria: S. aureus Vat A streptogramin; conditions: Staphylococcus aureus; Gram-positive; column 5; read-out: Minimal Inhibitory Concentration (MIC) S. aureus Vat A streptogramin
[12] = test system: S. aureus Linezolid-resistant; cfr; test: MIC, Gram-positive bacteria: S. aureus Linezolid-resistant; cfr; conditions: Staphylococcus aureus, column 9, read-out: Minimal Inhibitory Concentration (MIC) S. aureus Linezolid-resistant
[13] = first unnamed S. aureus column (c4)
[14] = fourth unnamed S. aureus column (c8)
[15] = second unnamed S. aureus column (c6)
[16] = third unnamed S. aureus column (c7)
[17] = Acinetobacter baumannii, ATCC19606, read-out: Minimal Inhibitory Concentration (MIC), A. baumannii ATCC 19606
[18] = Escherichia coli, ATCC25922, read-out: Minimal Inhibitory Concentration (MIC), E. coli ATCC 25922
[19] = Escherichia coli, read-out: Minimal Inhibitory Concentration (MIC), E. coli BAS2006, OMP C, OMP F
[20] = Escherichia coli, read-out: Minimal Inhibitory Concentration (MIC), E. coli olC efflux defective
[21] = Escherichia coli, read-out: Minimal Inhibitory Concentration (MIC), E. coli permeability mutant BAS1314, IMP4213ZAB::TN10
[22] = Klebsiella pneumoniae, ATCC43816, read-out: Minimal Inhibitory Concentration (MIC), K. pneumoniae ATCC 43816
[23] = Escherichia coli, read-out: Minimal Inhibitory Concentration (MIC), E. coli ΔompC768, KanR insert

SMILES | MIC [1] [µg/mL] | MIC [2] [µg/mL] | MIC [3] [µg/mL] | MIC [4] [µg/mL] | MIC [5, 13] [µg/mL] | MIC [5, 14] [µg/mL] | MIC [5, 15] [µg/mL] | MIC [5, 16] [µg/mL] | MIC [6] [µg/mL] | MIC [7] [µg/mL] | MIC [8] [µg/mL] | MIC [9] [µg/mL] | MIC [10, 17] [µg/mL] | MIC [10, 18] [µg/mL] | MIC [10, 19] [µg/mL] | MIC [10, 20] [µg/mL] | MIC [10, 21] [µg/mL] | MIC [10, 22] [µg/mL] | MIC [11] [µg/mL] | MIC [12] [µg/mL] | further results
COc1ccc(NC(=O)OC[C@H](C)[C@H]2OC(=O)[C@H]3CCCN3C(=O)c3coc(n3)CC(=O)C[C@H](O)/C=C(C)/C=C/CNC(=O)/C=C/[C@H]2C)cc1 [SA0110040] | > 64 | > 64 | 16 (≈ 23.1 µM) | 16 (≈ 23.1 µM) | 32 (≈ 46.2 µM) | 16 (≈ 23.1 µM) | 32 (≈ 46.2 µM) | 64 (≈ 92.4 µM) | > 64 | 16 (≈ 23.1 µM) | 64 (≈ 92.4 µM) | > 64 | > 64 | > 64 | 16 (≈ 23.1 µM) | 2 (≈ 2.89 µM) | 8 (≈ 11.5 µM) | > 64 | > 64 | > 64 | 
CC1=C\[C@@H](O)CC(=O)Cc2nc(co2)C(=O)N2CCC[C@@H]2C(=O)O[C@H]([C@H](C)COC(=O)Nc2ccn(C)n2)[C@H](C)/C=C/C(=O)NC\C=C\1 [SA0110218] | > 64 | > 64 | > 64 | > 64 | > 64 | > 64 | > 64 | > 64 | > 64 | 32 (≈ 48 µM) | > 64 | > 64 | > 64 | > 64 | > 64 | 16 (≈ 24 µM) | 32 (≈ 48 µM) | > 64 | > 64 | > 64 | MIC [10, 23]: > 64 µg/mL
CC1=C\[C@@H](O)CC(=O)Cc2nc(co2)C(=O)N2CCC[C@@H]2C(=O)O[C@H]([C@@H](C)CO)[C@H](C)/C=C/C(=O)NC\C=C\1 [SA0110026] | > 64 | > 64 | 64 (≈ 118 µM) | 64 (≈ 118 µM) | > 64 | > 64 | > 64 | > 64 | > 64 | 64 (≈ 118 µM) | > 64 | > 64 | > 64 | > 64 | 64 (≈ 118 µM) | 32 (≈ 58.9 µM) | 64 (≈ 118 µM) | > 64 | > 64 | > 64 | 
CC1=C\[C@@H](O)CC(=O)Cc2nc(co2)C(=O)N2CCC[C@@H]2C(=O)O[C@H]([C@H](C)COC(=O)Nc2ccnc(Br)c2)[C@H](C)/C=C/C(=O)NC\C=C\1 [SA0110206] | > 64 | > 64 | 8 (≈ 10.8 µM) | 8 (≈ 10.8 µM) | 16 (≈ 21.5 µM) | 16 (≈ 21.5 µM) | 16 (≈ 21.5 µM) | 32 (≈ 43.1 µM) | > 64 | 4 (≈ 5.39 µM) | 16 (≈ 21.5 µM) | > 64 | > 64 | > 64 | 16 (≈ 21.5 µM) | 2 (≈ 2.69 µM) | 2 (≈ 2.69 µM) | > 64 | > 64 | > 64 | MIC [10, 23]: > 64 µg/mL
CC1=C\[C@@H](O)C[C@@H](O)Cc2nc(cs2)C(=O)N2CCC[C@@H]2C(=O)O[C@H](C(C)C)[C@H](C)/C=C/C(=O)NC\C=C\1 [SA0110264] | > 64 | > 64 | 1 (≈ 1.83 µM) | 2 (≈ 3.67 µM) | 8 (≈ 14.7 µM) | 8 (≈ 14.7 µM) | 16 (≈ 29.3 µM) | 16 (≈ 29.3 µM) | > 64 | 1 (≈ 1.83 µM) | 4 (≈ 7.33 µM) | > 64 | > 64 | > 64 | 4 (≈ 7.33 µM) | 2 (≈ 3.67 µM) | 1 (≈ 1.83 µM) | > 64 | > 64 | > 64 | MIC [10, 23]: > 64 µg/mL
